In PubChem BioAssay (NCI):
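Step 1: Grow cells in 96-well plates. Step 2: Expose to compound for 48 hours at 5 concentrations. Step 3: Interpolate endpoints linearly; if unreached, use highest concentration. GI50: concentration for 50% inhibition of growth. Definition used: TGI = concentration required for complete inhibition of growth.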

Columns and labels:
Experiment in all cases: NCI-60 cell line screen, 48 h
[1] = test system: UACC-62 melanoma
[2] = test system: SW-620 colon
[3] = test system: OVCAR-5 ovarian
[4] = test system: SNB-75 CNS
[5] = test system: HT29 colon
[6] = test system: RPMI-8226 leukemia
[7] = test system: SN12C renal
[8] = test system: IGROV1 ovarian
[9] = test system: MCF7 breast
[10] = test system: PC-3 prostate

Compound	TGI [1]	TGI [2]	TGI [3]	TGI [4]	TGI [5]	TGI [6]	TGI [7]	TGI [8]	GI50 [1]	GI50 [2]	GI50 [4]	GI50 [5]	GI50 [6]	GI50 [7]	GI50 [9]	TGI [9]	GI50 [8]	GI50 [3]	GI50 [10]	TGI [10]
COC(=O)OCC1OC(N2C(=O)NC(=O)C(I)C2N=[N+]=[N-])CC1OC(=O)OC (stereo unspecified)	> 100 µM	> 100 µM	> 100 µM	> 100 µM	> 100 µM	> 100 µM	> 100 µM	> 100 µM												
O=c1/c(=C/c2cccc3ccccc23)sc2nc3ccccc3n12	> 100 µM	> 100 µM	> 100 µM	> 100 µM	> 100 µM		> 100 µM	> 100 µM												
COC(=O)c1cnc2nc(N3CCOCC3)[nH]n2c1=O	> 100 µM	> 100 µM	> 100 µM	> 100 µM	> 100 µM	> 100 µM	> 100 µM	> 100 µM												
COc1ccc(-c2cc3c4c(nc5ccccc5c4c2)CC(c2cc(OC)c(OC)c(OC)c2)O3)cc1 (stereo unspecified)	20.1 µM	> 100 µM		3.1 µM	> 100 µM	> 100 µM	> 100 µM	12.6 µM	3.54 µM	2.63 µM	1.13 µM	3.07 µM	3.66 µM	2.75 µM	2.36 µM	79.5 µM	2.66 µM			
[Cu+2].[Cu+2].[O-]c1ccccc1C=Nc1ccccc1[O-].[O-]c1ccccc1C=Nc1ccccc1[O-]	14 µM	26.2 µM	32.6 µM	21.8 µM	27.4 µM	54.6 µM	27.3 µM	12.2 µM	3.55 µM	6.61 µM	10.2 µM	6.05 µM	3.5 µM	13.7 µM			3.33 µM	17.7 µM		
O=CC1=CCCC2(C1)OCCO2	> 100 µM	> 100 µM		24.2 µM	> 100 µM	> 100 µM	> 100 µM	> 100 µM												
CCCCN(CC)C(=O)C(=O)C1C(=O)Nc2ccccc2S1=O (stereo unspecified)	> 100 µM	> 100 µM	> 100 µM	> 100 µM	> 100 µM	> 100 µM	> 100 µM	> 100 µM												
COc1cc2c(cc1OC)C1c3ccccc3C(C#N)(C2)N(C(=O)c2ccccc2)C1O (stereo unspecified)	> 100 µM	> 100 µM	> 100 µM	> 100 µM	> 100 µM	> 100 µM	> 100 µM	> 100 µM												
COc1ccc(-c2nc(-c3nc4ccc(F)cc4[nH]3)cc3c2[nH]c2ccccc23)cc1	4.25 µM	> 100 µM	> 100 µM		9.01 µM	3.92 µM	> 100 µM	9.7 µM	1.86 µM	3.73 µM		2.96 µM	1.16 µM	2.97 µM	2.53 µM	> 100 µM	2.49 µM	4.46 µM	1.69 µM	5.71 µM
CN(C)CCNC(=O)c1ccc2ccc3cccnc3c2n1	30.4 µM	> 100 µM	47.8 µM	34.4 µM	> 100 µM		> 92.9 µM	> 100 µM												
CC(=O)[CH-]C(=O)c1ccccc1.CC(=O)[CH-]C(=O)c1ccccc1.[Nd+3].[OH-].[OH3+]	> 100 µM	> 100 µM		> 100 µM	> 100 µM	> 100 µM	> 100 µM	> 100 µM	> 100 µM	> 100 µM	60.5 µM	> 100 µM	> 100 µM	> 100 µM			> 100 µM			
CC(=O)O[C@]1(C(C)=O)CC[C@H]2[C@@H]3C[C@H](C)C4=CC(=O)C=C[C@]4(C)[C@@]3(F)[C@@H](O)C[C@@]21C	> 100 µM	> 100 µM	> 100 µM	> 100 µM	> 100 µM	> 100 µM		> 100 µM												
O=C(NC1CCCCC1)c1c(O)[nH]c(=S)[nH]c1=O	> 100 µM	> 100 µM	> 100 µM	> 100 µM	> 100 µM	> 100 µM	> 100 µM	> 100 µM												
O=C(O)CSc1n[nH]c(/C=C/c2ccccc2)n1	> 100 µM	> 100 µM	> 100 µM	> 100 µM	> 100 µM	> 100 µM	> 100 µM	> 100 µM												
CC(NC(=O)c1ccccc1)C(=O)N(Cc1ccccc1)Cc1ccccc1 (stereo unspecified)	30.7 µM	> 100 µM	> 100 µM	> 100 µM	> 100 µM	45.7 µM	> 100 µM	> 100 µM												
N=C(N)/N=C(/C=C/c1ccccc1)CC1OC(=O)c2ccccc21 (stereo unspecified)	> 100 µM	> 100 µM		> 100 µM	> 100 µM	> 100 µM	> 100 µM	> 100 µM												
O=C1CCC2(c3ccc(F)cc3)Nc3ccccc3N12 (stereo unspecified)	> 100 µM	> 100 µM	> 100 µM	> 100 µM	> 100 µM	> 100 µM	> 100 µM	> 100 µM												
O=c1cc2n(c(=O)[nH]1)C1OC(C(O)C1O)[C@@H]2CCO (stereo partly specified)	> 100 µM	> 100 µM	> 100 µM		> 100 µM		> 100 µM	> 100 µM												
COCCNCC(O)Cn1c2ccc(Cl)cc2c2cc(Cl)ccc21 (stereo unspecified)		3.64 µM	5.23 µM	4.15 µM	4.24 µM	5.25 µM	4.46 µM			1.83 µM	1.12 µM	2.23 µM	2.14 µM	1.94 µM	1.81 µM	3.49 µM		2.15 µM	1.75 µM	3.81 µM
COc1cc2c(cc1OC)C13CCN4CC5=CCOC(CC(=O)O)C(C5CC41)C3N2 (stereo unspecified)	> 100 µM	> 100 µM	> 100 µM		> 100 µM	> 100 µM	> 100 µM	> 100 µM								> 100 µM				> 100 µM
COc1ccc(CC(=O)c2cc(OC)c(OC)cc2C)cc1OC	> 100 µM	> 100 µM	> 100 µM	> 100 µM	> 100 µM	> 100 µM	> 100 µM	> 100 µM												
CN(C)c1c(Cl)c(=O)oc2c1ccc1nc(-c3ccccc3)sc12	> 100 µM	> 100 µM	> 100 µM		> 100 µM	> 100 µM	> 100 µM	> 100 µM								> 100 µM				> 100 µM
